Data as given in paper PMC8327158, “PEGylated AdipoRon derivatives improve glucose and lipid metabolism under insulinopenic and high-fat diet conditions” (Journal of Lipid Research, 2021).

Columns and labels:
[1] = Plasma pharmacokinetics after IP dosing; assay type: in vivo, C57BL/6J mice; conditions: IP 20 mg/kg; for Cmax: male, mouse, plasma, 8-week-old C57BL/6J mice, mean ± SEM
Method: Two groups of male C57BL/6J mice (21 mice/group) at 8 weeks of age were dosed IP with 20 mg/kg AdipoRon or AdipoRonPEG5, 0.2 ml/mouse formulated as 10% DMSO/10% Cremophor/20% PEG400/60% PBS. Whole blood was harvested at seven time points post IP dosing, 10 min, 30 min, 90 min, 180 min, 360 min, 960 min, and 1,440 min. Three mice were euthanized at each time point. Plasma was processed from whole blood by centrifugation of the ACD-treated blood for 10′ at 10,000 rpm in a standard centrifuge. Additionally, the liver was harvested. The tissues were weighed and snap frozen in liquid nitrogen.
To quantify plasma drug concentration and PK, we prepared standards by adding 98 μl blank plasma (BioIVT) to an eppendorf. These were spiked with 2 μl of initial standard. For QCs, we added 98.8 μl blank plasma to Eppendorf, spiked with 1.2 μl of initial standard. For samples, we mixed 100 μl plasma with 200 μl of methanol containing 0.15% formic acid and 75 ng/ml IS (IS final conc. = 50 ng/ml). The samples were vortexed 15 s, incubated at room temp for 10′, and spun 2× 13,200 rpm in a standard microcentrifuge. The supernatant was then analyzed by LC-MS/MS.

ceramidase = assay: Ceramidase activity assay in lysate of treated INS1 cells; assay type: cell-based, rat; conditions: INS1 cells treated 20 μM 24 h
Method: INS1 cells were cultured in 10 cm dish and treated with AdipoRon or AdipoRonPEG5 (20 μM) for 24 h. Remove the media and collect cells using a cell scraper and transfer cells to a 1.5 ml tube. Centrifuge to spin down the cells before freezing in liquid nitrogen. Cell pellets were stored at –80°C till analysis. During analysis, INS1 cell pellets on dry ice were mixed with 500 μl of Dulbecco PBS with Ca^2+ and Mg^2+. The sample was then immediately placed on ice and lysed with a tissue disruptor probe (Fisher Scientific, Model FB50, Waltham MA) by performing five short disruption cycles at a power of 30% (3 s each cycle). Briefly perform a gentle vortexing of the vial. Take an aliquot of 50 μl of sample for protein determination (Pierce™ BCA Protein Assay Kit, Thermo Fisher Scientific). In total, 400 μl of lysate was transferred to a culture borosilicate glass tube containing 1.6 ml of Dulbecco PBS with Ca^2+ and Mg^2+ on ice. […] All the samples and serial dilutions were analyzed by injecting 1 μl in the LC-MS/MS system: Shimadzu LCMS-8060 triple-quadrupole mass spectrometer coupled to a Nexera X2 UHPLC chromatograph (Shimadzu Scientific Instruments, Columbia, MD) operating the dual ion source (DUIS) in electrospray positive ionization mode. […]

SMILES	Cmax [1]	ceramidase activity / labeled ceramide levels in cell lysate (ceramidase)	increase in maximal plasma concentration compared with AdipoRon [1]
O=C(COc1ccc(C(=O)c2ccccc2)cc1)NC1CCN(Cc2ccccc2)CC1 [AdipoRon]	2170 ± 196 ng/mL	remained essentially the same as untreated control	–
O=C(COc1ccc(C(=O)c2ccccc2)cc1)NC1CCN(Cc2ccc(OCCOCCOCCOCCOCCO)cc2)CC1 [AdipoRonPEG5]	6510 ± 685 ng/mL	reduced levels of labeled ceramides	threefold
